Results as given in patent US8575178B2, “Isothiazolo-pyrimidinedione derivatives as TRPA1 modulators” (Glenmark Pharmaceuticals S.A., priority 2009, dated 2013).

Legend:
human TRPA1 = target: T1, human TRPA1 (Homo sapiens, UniProt O75762); experiment: 45Calcium uptake assay, inhibition of AITC induced calcium uptake in human TRPA1 expressing CHO cells; format: cell-based; conditions: AITC 30 μM; for inhibition at 1 µM: 1.0 μM compound, read-out: human TRPA1 Percentage inhibition at 1.0 μM; for inhibition at 10 µM: 10.0 μM compound, read-out: human TRPA1 Percentage inhibition at 10.0 μM
T1 construct: expressed in transfected cells; host or cells: CHO cells (G-418 selection)
T1 sequence (O75762 whole entry): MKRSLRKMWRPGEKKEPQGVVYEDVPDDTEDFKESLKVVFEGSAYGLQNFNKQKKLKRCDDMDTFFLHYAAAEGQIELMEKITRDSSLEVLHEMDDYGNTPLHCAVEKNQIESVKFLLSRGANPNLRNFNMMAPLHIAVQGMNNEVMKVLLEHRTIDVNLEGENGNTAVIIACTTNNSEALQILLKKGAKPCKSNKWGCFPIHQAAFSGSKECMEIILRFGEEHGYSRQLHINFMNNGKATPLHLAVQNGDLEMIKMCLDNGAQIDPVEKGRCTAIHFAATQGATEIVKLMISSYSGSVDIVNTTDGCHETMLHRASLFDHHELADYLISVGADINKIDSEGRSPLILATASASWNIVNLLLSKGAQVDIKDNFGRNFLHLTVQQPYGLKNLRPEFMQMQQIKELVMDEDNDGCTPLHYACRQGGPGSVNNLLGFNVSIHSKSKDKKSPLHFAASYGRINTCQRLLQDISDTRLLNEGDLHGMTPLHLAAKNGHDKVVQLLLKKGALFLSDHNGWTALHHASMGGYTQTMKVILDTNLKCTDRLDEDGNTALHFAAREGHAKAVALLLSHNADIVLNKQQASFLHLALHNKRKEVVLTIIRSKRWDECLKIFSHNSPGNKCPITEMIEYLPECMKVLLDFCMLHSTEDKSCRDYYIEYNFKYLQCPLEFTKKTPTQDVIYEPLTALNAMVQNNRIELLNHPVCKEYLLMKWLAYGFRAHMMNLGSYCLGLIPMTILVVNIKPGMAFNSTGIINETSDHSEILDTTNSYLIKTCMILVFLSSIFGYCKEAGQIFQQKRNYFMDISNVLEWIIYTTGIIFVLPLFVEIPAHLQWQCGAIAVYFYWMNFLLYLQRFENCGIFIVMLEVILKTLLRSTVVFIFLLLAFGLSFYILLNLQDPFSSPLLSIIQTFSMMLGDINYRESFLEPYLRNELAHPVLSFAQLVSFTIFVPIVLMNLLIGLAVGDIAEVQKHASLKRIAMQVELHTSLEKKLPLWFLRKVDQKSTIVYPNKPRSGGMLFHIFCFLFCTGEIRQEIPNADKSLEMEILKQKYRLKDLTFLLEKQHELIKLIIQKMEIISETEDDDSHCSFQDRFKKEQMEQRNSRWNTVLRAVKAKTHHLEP
Description: (§1) The illustrative examples of the present invention are screened for TRPA1 activity according to a modified procedure described in (a) Tóth, A. et al. Life Sciences, 2003, 73, 487-498. (b) McNamara C, R. et al, Proc. Natl. Acad. Sci. U.S.A., 2007, 104, 13525-13530. The screening of the compounds can be carried out by other methods and procedures known to persons skilled in the art.
(§2) Screening for TRPA1 Antagonist Using the ^45Calcium Uptake Assay:
(§3) The inhibition of TRPA1 receptor activation was measured as inhibition of allyl isothiocyanate (AITC) induced cellular uptake of radioactive calcium.
(§4) Test compounds were dissolved in 100% DMSO to prepare 10 mM stock and then diluted using plain medium with 0.1% BSA and 1.8 mM CaCl2 to get the desired concentration. The final concentration of DMSO in the reaction was 0.5% (v/v). Human TRPA1 expressing CHO cells were grown in F-12 DMEM medium with 10% FBS, 1% penicillin-streptomycin solution, and 400 μg/ml of G-418. Rat TRPA1 expressing CHO cells were grown in F-12 DMEM medium with 10% FBS, 1% penicillin-streptomycin solution, and 400 μg/ml of Zeocin. Cells were seeded 24 h prior to the assay in 96 well plates so as to get ˜50,000 cells per well on the day of experiment. Cells were treated with the test compounds for 10 minutes followed by the addition of AITC at a final concentration of 30 μM (for human TRPA1) and/or 10 μM (for rat TRPA1) and 5 μCi/ml ^45Ca^+2 for 3 minutes. Cells were washed and lysed using a buffer containing 1% Triton X-100, 0.1% deoxycholate and 0.1% SDS. Radioactivity in the lysate was measured in a Packard TopCount after addition of liquid scintillant. (Toth et al, Life Sciences (2003) 73, 487-498; McNamara C R et al, Proceedings of the National Academy of Sciences, (2007) 104, 13525-13530).
(§5) Concentration response curves were plotted as a % of maximal response obtained in the absence of test antagonist. IC50 values can be calculated from concentration response curve by nonlinear regression analysis using GraphPad PRISM software.

rat TRPA1 = target: T2, rat TRPA1 (Rattus norvegicus, UniProt Q6RI86); experiment: 45Calcium uptake assay, inhibition of AITC induced calcium uptake in rat TRPA1 expressing CHO cells; format: cell-based; conditions: AITC 10 μM; for inhibition at 1 µM: 1.0 μM compound, read-out: rat TRPA1 Percentage inhibition at 1.0 μM; for inhibition at 10 µM: 10.0 μM compound, read-out: rat TRPA1 Percentage inhibition at 10.0 μM
T2 construct: expressed in transfected cells; host or cells: CHO cells (Zeocin selection)
T2 sequence (Q6RI86 whole entry): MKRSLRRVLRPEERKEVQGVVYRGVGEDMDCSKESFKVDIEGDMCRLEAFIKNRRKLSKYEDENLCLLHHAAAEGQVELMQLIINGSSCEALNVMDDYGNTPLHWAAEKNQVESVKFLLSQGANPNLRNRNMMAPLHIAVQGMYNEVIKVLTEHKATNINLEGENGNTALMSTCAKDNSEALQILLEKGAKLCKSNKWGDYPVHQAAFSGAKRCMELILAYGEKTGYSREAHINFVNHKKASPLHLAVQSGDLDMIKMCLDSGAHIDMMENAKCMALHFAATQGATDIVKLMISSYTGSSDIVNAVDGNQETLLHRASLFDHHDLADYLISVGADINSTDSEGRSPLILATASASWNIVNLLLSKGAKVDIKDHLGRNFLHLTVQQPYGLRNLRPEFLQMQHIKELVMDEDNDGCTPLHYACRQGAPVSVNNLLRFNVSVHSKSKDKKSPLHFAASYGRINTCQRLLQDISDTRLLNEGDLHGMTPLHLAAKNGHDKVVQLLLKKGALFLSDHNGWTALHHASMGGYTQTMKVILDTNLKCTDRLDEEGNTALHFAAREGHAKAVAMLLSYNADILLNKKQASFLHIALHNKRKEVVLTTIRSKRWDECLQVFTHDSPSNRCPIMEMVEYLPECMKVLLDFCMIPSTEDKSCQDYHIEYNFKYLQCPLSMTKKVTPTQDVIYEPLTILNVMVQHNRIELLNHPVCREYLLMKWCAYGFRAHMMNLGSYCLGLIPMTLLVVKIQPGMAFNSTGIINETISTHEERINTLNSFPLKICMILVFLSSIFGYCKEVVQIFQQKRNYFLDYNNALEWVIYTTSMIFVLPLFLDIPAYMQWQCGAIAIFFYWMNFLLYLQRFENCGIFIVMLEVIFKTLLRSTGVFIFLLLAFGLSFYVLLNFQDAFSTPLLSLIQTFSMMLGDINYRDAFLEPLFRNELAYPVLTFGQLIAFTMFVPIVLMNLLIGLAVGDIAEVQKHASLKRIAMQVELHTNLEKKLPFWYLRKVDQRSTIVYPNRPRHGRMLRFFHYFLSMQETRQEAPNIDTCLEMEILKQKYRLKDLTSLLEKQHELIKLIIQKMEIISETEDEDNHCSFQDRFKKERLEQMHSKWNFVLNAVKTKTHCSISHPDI
Description: as §1, §2, §3, §4, §5

Q: Which results are given for `Cn1c(=O)c2c(CC(=O)Nc3nc(-c4cccc(C(F)(F)F)c4F)cs3)nsc2n(C)c1=O` [Example 23, 2-(5,7-Dimethyl-4,6-dioxo-4,5,6,7-tetrahydro[1,2]thiazolo[5,4-d]pyrimidin-3-yl)-N-{4-[2-fluoro-3-(trifluoromethyl)phenyl]-1,3-thiazol-2-yl}acetamide]?
A: inhibition at 1 µM (human TRPA1): 99.3%; inhibition at 10 µM (human TRPA1): 100%; IC50 (human TRPA1): < 50 nM; inhibition at 1 µM (rat TRPA1): 100%; inhibition at 10 µM (rat TRPA1): 100%; IC50 (rat TRPA1): < 50 nM

Q: Which results are given for `Cn1c(=O)c2c(CC(=O)Nc3nc(-c4ccc(F)c(OC(F)(F)F)c4)cs3)nsc2n(C)c1=O` [Example 24, 2-(5,7-Dimethyl-4,6-dioxo-4,5,6,7-tetrahydro[1,2]thiazolo[5,4-d]pyrimidin-3-yl)-N-{4-[4-fluoro-3-(trifluoromethoxy)phenyl]-1,3-thiazol-2-yl}acetamide]?
A: inhibition at 1 µM (human TRPA1): 99.6%; inhibition at 10 µM (human TRPA1): 100%; IC50 (human TRPA1): < 50 nM; inhibition at 1 µM (rat TRPA1): 100%; inhibition at 10 µM (rat TRPA1): 99.8%; IC50 (rat TRPA1): 50 to 100 nM

Q: How did the inhibition at 1 µM (human TRPA1) turn out when `Cn1c(=O)c2c(CC(=O)Nc3nc(-c4ccc(OC(F)(F)F)c(F)c4)cs3)nsc2n(C)c1=O` [Example 25, 2-(5,7-Dimethyl-4,6-dioxo-4,5,6,7-tetrahydro[1,2]thiazolo[5,4-d]pyrimidin-3-yl)-N-{4-[3-fluoro-4-(trifluoromethoxy)phenyl]-1,3-thiazol-2-yl}acetamide] was run?
A: The inhibition at 1 µM was 99.9%.

Q: And the inhibition at 10 µM (human TRPA1)?
A: Its inhibition at 10 µM is 100%.

Q: And the IC50 (human TRPA1)?
A: The IC50 was less than 50 nM.

Q: And the inhibition at 1 µM (rat TRPA1)?
A: Its inhibition at 1 µM is 98.8%.

Q: And the inhibition at 10 µM (rat TRPA1)?
A: Its inhibition at 10 µM is 100%.

Q: What about the IC50 (rat TRPA1) of the same compound?
A: Its IC50 is 50 to 100 nM.

Q: For `Cn1c(=O)c2c(CC(=O)Nc3nc(-c4ccc(Cl)c(Cl)c4)cs3)nsc2n(C)c1=O` [Example 26, N-[4-(3,4-Dichlorophenyl)-1,3-thiazol-2-yl]-2-(5,7-dimethyl-4,6-dioxo-4,5,6,7-tetrahydro[1,2]thiazolo[5,4-d]pyrimidin-3-yl)acetamide], which inhibition at 1 µM (human TRPA1) is on record?
A: Its inhibition at 1 µM is 99.9%.

Q: What about the inhibition at 10 µM (human TRPA1) of the same compound?
A: The inhibition at 10 µM was 99.5%.

Q: And the IC50 (human TRPA1)?
A: Its IC50 is less than 50 nM.

Q: And the inhibition at 1 µM (rat TRPA1)?
A: The inhibition at 1 µM was 97.7%.

Q: What about the inhibition at 10 µM (rat TRPA1) of the same compound?
A: Its inhibition at 10 µM is 100%.

Q: And the IC50 (rat TRPA1)?
A: Its IC50 is greater than 100 nM.

Q: Which inhibition at 1 µM (human TRPA1) does the source give for `Cn1c(=O)c2c(CC(=O)Nc3nc(-c4ccc(F)c(F)c4)cs3)nsc2n(C)c1=O` [Example 27, N-[4-(3,4-Difluorophenyl)-1,3-thiazol-2-yl]-2-(5,7-dimethyl-4,6-dioxo-4,5,6,7-tetrahydro[1,2]thiazolo[5,4-d]pyrimidin-3-yl)acetamide] here?
A: Its inhibition at 1 µM is 97.8%.

Q: What about the inhibition at 10 µM (human TRPA1) of the same compound?
A: The inhibition at 10 µM was 99.8%.

Q: And the IC50 (human TRPA1)?
A: Its IC50 is less than 50 nM.

Q: And the inhibition at 1 µM (rat TRPA1)?
A: The inhibition at 1 µM was 81.8%.

Q: And the inhibition at 10 µM (rat TRPA1)?
A: Its inhibition at 10 µM is 99.6%.

Q: And the IC50 (rat TRPA1)?
A: Its IC50 is greater than 100 nM.

Q: `Cn1c(=O)c2c(CC(=O)Nc3nc(-c4ccc(F)cc4F)cs3)nsc2n(C)c1=O` [Example 28, N-[4-(2,4-Difluorophenyl)-1,3-thiazol-2-yl]-2-(5,7-dimethyl-4,6-dioxo-4,5,6,7-tetrahydro[1,2]thiazolo[5,4-d]pyrimidin-3-yl)acetamide] was tested. Which inhibition at 1 µM (human TRPA1) did it give?
A: Its inhibition at 1 µM is 98%.

Q: And the inhibition at 10 µM (human TRPA1)?
A: Its inhibition at 10 µM is 99.6%.

Q: And the IC50 (human TRPA1)?
A: Its IC50 is less than 50 nM.

Q: What about the inhibition at 1 µM (rat TRPA1) of the same compound?
A: The inhibition at 1 µM was 92.8%.

Q: What about the inhibition at 10 µM (rat TRPA1) of the same compound?
A: Its inhibition at 10 µM is 100%.

Q: What does the source list for `Cn1c(=O)c2c(CC(=O)Nc3nc(-c4ccc(Cl)c(C(F)(F)F)c4)cs3)nsc2n(C)c1=O` [Example 29, 2-(5,7-Dimethyl-4,6-dioxo-4,5,6,7-tetrahydro[1,2]thiazolo[5,4-d]pyrimidin-3-yl)-N-{4-[4-chloro-3-(trifluoromethyl)phenyl]-1,3-thiazol-2-yl}acetamide]?
A: inhibition at 1 µM (human TRPA1): 98.1%; inhibition at 10 µM (human TRPA1): 99.6%; IC50 (human TRPA1): < 50 nM; inhibition at 1 µM (rat TRPA1): 100%; inhibition at 10 µM (rat TRPA1): 100%; IC50 (rat TRPA1): < 50 nM

Q: Which results are given for `Cn1c(=O)c2c(CC(=O)Nc3nc(-c4ccc(OC(F)(F)F)c(Cl)c4)cs3)nsc2n(C)c1=O` [Example 30, 2-(5,7-Dimethyl-4,6-dioxo-4,5,6,7-tetrahydro[1,2]thiazolo[5,4-d]pyrimidin-3-yl)-N-{4-[3-chloro-4-(trifluoromethoxy)phenyl]-1,3-thiazol-2-yl}acetamide]?
A: inhibition at 1 µM (human TRPA1): 95.6%; inhibition at 10 µM (human TRPA1): 99.7%; IC50 (human TRPA1): < 50 nM; inhibition at 1 µM (rat TRPA1): 100%; inhibition at 10 µM (rat TRPA1): 99.3%; IC50 (rat TRPA1): 50 to 100 nM

Q: What does the source list for `Cn1c(=O)c2c(CC(=O)Nc3nc(-c4ccc(Cl)c(OC(F)(F)F)c4)cs3)nsc2n(C)c1=O` [Example 31, 2-(5,7-Dimethyl-4,6-dioxo-4,5,6,7-tetrahydro[1,2]thiazolo[5,4-d]pyrimidin-3-yl)-N-{4-[4-chloro-3-(trifluoromethoxy)phenyl]-1,3-thiazol-2-yl}acetamide]?
A: inhibition at 1 µM (human TRPA1): 99.2%; inhibition at 10 µM (human TRPA1): 99.2%; inhibition at 1 µM (rat TRPA1): 99.6%; inhibition at 10 µM (rat TRPA1): 96.2%

Q: How did the inhibition at 1 µM (human TRPA1) turn out when `Cn1c(=O)c2c(CC(=O)Nc3nc(-c4cc(Cl)cc(C(F)(F)F)c4)cs3)nsc2n(C)c1=O` [Example 32, 2-(5,7-Dimethyl-4,6-dioxo-4,5,6,7-tetrahydro[1,2]thiazolo[5,4-d]pyrimidin-3-yl)-N-{4-[3-chloro-5-(trifluoromethyl)phenyl]-1,3-thiazol-2-yl}acetamide] was run?
A: The inhibition at 1 µM was 99.2%.

Q: And the inhibition at 10 µM (human TRPA1)?
A: The inhibition at 10 µM was 99.4%.

Q: What about the inhibition at 1 µM (rat TRPA1) of the same compound?
A: The inhibition at 1 µM was 99.8%.

Q: And the inhibition at 10 µM (rat TRPA1)?
A: Its inhibition at 10 µM is 100%.

Q: Which results are given for `Cn1c(=O)c2c(CC(=O)Nc3nc(-c4ccc(F)c(C(F)(F)F)c4F)cs3)nsc2n(C)c1=O` [Example 37, N-{4-[2,4-Difluoro-3-(trifluoromethyl)phenyl]-1,3-thiazol-2-yl}-2-(5,7-dimethyl-4,6-dioxo-4,5,6,7-tetrahydro[1,2]thiazolo[5,4-d]pyrimidin-3-yl)acetamide]?
A: inhibition at 1 µM (human TRPA1): 98.3%; inhibition at 10 µM (human TRPA1): 99.3%; IC50 (human TRPA1): < 50 nM; IC50 (rat TRPA1): < 50 nM

Q: `Cn1c(=O)c2c(CC(=O)Nc3nc(-c4cc(F)c(C(F)(F)F)c(F)c4)cs3)nsc2n(C)c1=O` [Example 38, N-{4-[3,5-difluoro-4-(trifluoromethyl)phenyl]-1,3-thiazol-2-yl}-2-(5,7-dimethyl-4,6-dioxo-4,5,6,7-tetrahydro[1,2]thiazolo[5,4-d]pyrimidin-3-yl)acetamide] was tested. Which inhibition at 1 µM (human TRPA1) did it give?
A: The inhibition at 1 µM was 100%.

Q: What about the inhibition at 10 µM (human TRPA1) of the same compound?
A: Its inhibition at 10 µM is 99.9%.

Q: What about the IC50 (human TRPA1) of the same compound?
A: The IC50 was less than 50 nM.

Q: And the inhibition at 1 µM (rat TRPA1)?
A: Its inhibition at 1 µM is 100%.

Q: And the inhibition at 10 µM (rat TRPA1)?
A: Its inhibition at 10 µM is 100%.

Q: And the IC50 (rat TRPA1)?
A: The IC50 was less than 50 nM.

Q: What does the source list for `Cn1c(=O)c2c(CC(=O)Nc3nc(-c4ccc(C(F)(F)F)c(F)c4F)cs3)nsc2n(C)c1=O` [Example 39, N-{4-[2,3-Difluoro-4-(trifluoromethyl)phenyl]-1,3-thiazol-2-yl}-2-(5,7-dimethyl-4,6-dioxo-4,5,6,7-tetrahydro[1,2]thiazolo[5,4-d]pyrimidin-3-yl)acetamide]?
A: inhibition at 1 µM (human TRPA1): 99.8%; inhibition at 10 µM (human TRPA1): 99.9%; inhibition at 1 µM (rat TRPA1): 96.5%; inhibition at 10 µM (rat TRPA1): 95.8%
